From ChEMBL document CHEMBL3046544, “Inhibitory Activity of N-Substituted-2-piperidones with a 1, 4-Benzodioxan Ring on Germination of Barnyardgrass” (J Pestic Sci, 2001)

Assays:
[1] = tested on: Echinochloa esculenta; assay: Herbicidal activity against Echinochloa esculenta assessed as inhibition of seed germination at 1 nM after 5 days relative to control; type: functional; details: 120 h
[2] = tested on: Echinochloa esculenta; assay: Herbicidal activity against Echinochloa esculenta assessed as inhibition of seed germination at 100 nM after 5 days relative to control; type: functional; details: 120 h
[3] = tested on: Echinochloa esculenta; assay: Herbicidal activity against Echinochloa esculenta assessed as inhibition of seed germination at 10 nM after 5 days relative to control; type: functional; details: 120 h
[4] = tested on: Echinochloa esculenta; assay: Herbicidal activity against Echinochloa esculenta assessed as inhibition of seed germination at 1000 nM after 5 days relative to control; type: functional; details: 120 h
[5] = tested on: Echinochloa esculenta; assay: Herbicidal activity against Echinochloa esculenta assessed as inhibition of seed germination after 5 days relative to control; type: functional, organism-based; details: 120 h
[6] = tested on: Oryza sativa; assay: Herbicidal activity against Oryza sativa (rice) assessed as inhibition of seed germination at > 90 nM after 7 days relative to control; type: functional, organism-based; details: 168 h
[7] = tested on: Oryza sativa; assay: Herbicidal activity against Oryza sativa (rice) assessed as inhibition of seed germination after 7 days relative to control; type: functional, organism-based; details: 168 h
[8] = tested on: Echinochloa esculenta; assay: Herbicidal activity against Echinochloa esculenta assessed as inhibition of seed germination at 0.1 nM after 5 days relative to control; type: functional; details: 120 h

SMILES	inhibition at 0.001 µM [1]	inhibition at 0.1 µM [2]	inhibition at 0.01 µM [3]	inhibition at 1 µM [4]	IC50 [5]	IC50 [6]	IC50 [7]	inhibition at 0.0001 µM [8]
CC(C)C(O)C1CCCN(Cc2ccccc2)C1=O (mixture of isomers)	< 49%	< 49%	< 49%	< 49%	–	–	–	–
CC(C)CCC(O)C1CCCN(Cc2ccccc2)C1=O (mixture of isomers)	< 49%	50%	< 49%	50%	–	–	–	–
O=C1C(C(O)C2CCCCC2)CCCN1Cc1ccccc1 (mixture of isomers)	< 49%	< 49%	< 49%	< 49%	–	–	–	–
O=C1C(C(O)c2ccccc2)CCCN1Cc1ccccc1 (mixture of isomers)	< 49%	< 49%	< 49%	> 90%	–	–	–	–
O=C1C(C(O)C/C=C/c2ccccc2)CCCN1Cc1ccccc1 (mixture of isomers)	< 49%	50%	< 49%	50%	–	–	–	–
Cc1ccccc1C(O)C1CCCN(Cc2ccccc2)C1=O (mixture of isomers)	< 49%	< 49%	< 49%	> 90%	–	–	–	–
Cc1cccc(C(O)C2CCCN(Cc3ccccc3)C2=O)c1 (mixture of isomers)	< 49%	< 49%	< 49%	> 90%	–	–	–	–
Cc1ccc(C(O)C2CCCN(Cc3ccccc3)C2=O)cc1 (mixture of isomers)	< 49%	< 49%	< 49%	> 90%	–	–	–	–
COc1ccccc1C(O)C1CCCN(Cc2ccccc2)C1=O (mixture of isomers)	< 49%	< 49%	< 49%	50%	–	–	–	–
COc1cccc(C(O)C2CCCN(Cc3ccccc3)C2=O)c1 (mixture of isomers)	< 49%	< 49%	< 49%	< 49%	–	–	–	–
COc1ccc(C(O)C2CCCN(Cc3ccccc3)C2=O)cc1 (mixture of isomers)	< 49%	< 49%	< 49%	> 90%	–	–	–	–
O=C1C(C(O)c2ccccc2Cl)CCCN1Cc1ccccc1 (mixture of isomers)	< 49%	< 49%	< 49%	> 90%	–	–	–	–
O=C1C(C(O)c2cccc(Cl)c2)CCCN1Cc1ccccc1 (mixture of isomers)	< 49%	< 49%	< 49%	> 90%	–	–	–	–
O=C1C(C(O)c2ccc(Cl)cc2)CCCN1Cc1ccccc1 (mixture of isomers)	< 49%	50%	< 49%	> 90%	–	–	–	–
O=C1C(C(O)c2ccccc2[N+](=O)[O-])CCCN1Cc1ccccc1 (mixture of isomers)	< 49%	< 49%	< 49%	50%	–	–	–	–
O=C1C(C(O)c2ccc3c(c2)OCCO3)CCCN1Cc1ccccc1 (mixture of isomers)	< 49%	> 90%	> 90%	> 90%	8.8 nM	10 nM	> 90 nM	–
O=C1C(C(O)c2ccc3c(c2)OCCO3)CCCN1CC=C(c1ccccc1)c1ccccc1 (mixture of isomers)	< 49%	> 90%	> 90%	> 90%	–	–	–	< 49%
O=C1C(C(O)c2ccc3c(c2)OCCO3)CCCN1C/C=C/c1ccccc1 (mixture of isomers)	< 49%	> 90%	> 90%	> 90%	1.4 nM	25 nM	> 90 nM	< 49%
O=C1C(C(O)c2ccc3c(c2)OCCO3)CCCN1/C=C/c1ccccc1 (mixture of isomers)	< 49%	> 90%	50%	> 90%	–	–	–	< 49%
O=C1C(C(O)c2ccc3c(c2)OCCO3)CCCN1c1ccccc1 (mixture of isomers)	< 49%	< 49%	< 49%	< 49%	–	–	–	< 49%
C=CCN1CCCC(C(O)c2ccc3c(c2)OCCO3)C1=O (mixture of isomers)	< 49%	< 49%	< 49%	50%	–	–	–	< 49%
O=C1NCCCC1C(O)c1ccc2c(c1)OCCO2 (mixture of isomers)	< 49%	< 49%	< 49%	> 90%	–	–	–	< 49%
O=C1[C@H]([C@@H](O)c2ccc3c(c2)OCCO3)CCCN1C/C=C/c1ccccc1 (relative stereo)	–	–	–	–	> 1000 nM	–	> 1000 nM	–
O=C1[C@@H]([C@@H](O)c2ccc3c(c2)OCCO3)CCCN1C/C=C/c1ccccc1 (relative stereo)	–	–	–	–	0.8 nM	–	8.1 nM	–
O=C1[C@H]([C@@H](O)c2ccc3c(c2)OCCO3)CCCN1Cc1ccccc1 (relative stereo)	–	–	–	–	> 1000 nM	–	> 1000 nM	–
O=C1[C@@H]([C@@H](O)c2ccc3c(c2)OCCO3)CCCN1Cc1ccccc1 (relative stereo)	–	–	–	–	4.5 nM	30 nM	> 90 nM	–
